Entries after “also recorded” stand apart in the source; their conditions may differ.

The test system of data set [1] is calf thymus topoisomerase I. Nature of the data set: Topoisomerase I-mediated DNA cleavage assay (calf thymus topoisomerase I). In kind it is biochemical. Particulars: for Topo I-mediated DNA cleavage (REC, Relative Effective Concentration): concentration relative to Hoechst 33342 (arbitrarily 1) producing the same cleavage on plasmid DNA, calf thymus topoisomerase I; for potency as topoisomerase I inhibitor (in words): compared with Hoechst 33342 or with each other. The source says:
DNA topoisomerase I was purified from calf thymus gland as reported previously by B. D. Halligan et al., J. Biol. Chem. 260, 2475 (1985). Plasmid YEpG was also purified by the alkali lysis method followed by phenol deproteination and CsCl/ethidium isopycnic centrifugation as described by T. Mariatis et al., Molecular Cloning, A Laboratory Manual, Cold Spring Harbor Labs, N.Y. (1982) at pages 149-185. The end-labeling of the plasmid was accomplished as previously described by L. F. Liu et al., J. Biol. Chem., 258, 15365 (1983). The cleavage assays were performed as previously reported by A. Y. Chen et al., Cancer Res. 53, 1332 (1993). Human topoisomerase was isolated as a recombinant fusion protein using a T7 expression system.
^b Topoisomerase I cleavage values are reported as REC, Relative
Effective Concentration, i.e. concentrations relative to Hoechst 33342,
whose value is arbitrarily assumed as 1, that are able to produce the sam
cleavage on the plasmid DNA in the presence of calf thymus topoisomerase
I. Cleavage is calculated from the intensity of the strongest Hoechst

The subject of a further data set is tumor cells. Nature of the data set: Cytotoxicity to tumor cells (cell line not specified). In kind it is cell-based. The settings on record: for cytotoxicity of 3- and 4-pyridyl versus 2-pyridyl analog (in words): relative to the 2-pyridyl derivative, 14.
Another data set deals with minor groove of DNA. The settings on record: literature; cited from earlier work.
For data set [2], the system named is CPT-K5. Nature of the data set: MTT cytotoxicity assay, camptothecin-resistant CPT-K5. In kind it is cell-based, human. The protocol: (§1) The cytotoxicity was determined using the as MTT-microtiter plate tetrazolinium cytotoxicity assay (MTA) following the procedures of F. Denizot et al., J. Immunol. […] The cytotoxicity assay was performed using 96-well microtiter plates. Cells were grown in suspension at 37° C. in 5% CO2 and maintained by regular passage in RPMI medium supplemented with 10% heat inactivated fetal bovine serum, L-glutamine (2 mM), penicillin (100 U/ml), and streptomycin (0.1 mg/ml). For determination of IC50, cells were exposed continuously with varying concentrations of drug concentrations and MTT assays were performed at the end of the fourth day.
(Tetrazolium assays rely on reduction of a dye to a coloured formazan, in cell work by metabolically active cells.)

The next data set deals with topoisomerase I. The settings on record: Hoechst 33342; cited from earlier work.
For data set [3] the following is noted: cited from earlier work.
Data set [4] relates to KBV-1 cells. Particulars: as reported by A. Y. Chen et al., Adv. Pharmacol. (1994); cited from earlier work.
Data set [5] has as its system CPT-K5. Particulars: as reported by A. Y. Chen et al., Cancer Res., 53, 1332 (1993); cited from earlier work.
Data set [6] relates to human MDR1 (P-glycoprotein). Nature of the data set: MDR1 (P-glycoprotein) substrate, inferred from KB 3-1 versus KB V-1 cytotoxicity. In kind it is cell-based. The settings on record: inferred from KB 3-1 / KB V-1 IC50 values. The protocol:
The drug sensitive human epidermoid carcinoma KB3-1 cell line (S. Aliyama et al., Somatic Cell Mol. Genet., 11, 117 (1985)) and its vinblastine-selected multidrug-resistant variant KBV-1 cells (D. W. Shen et al., Science, 32, 643 (1986)) were provided by Dr. Michael Gottesmann (National Cancer Institute, Bethesda, Md.). These cells were grown as monolayer cultures at in 5% CO2 and maintained by regular passage in Dulbecco's minimal essential medium supplemented with 10% heat inactivated fetal bovine serum. KBV-1 cells were similarly maintained except they were grown in the presence of 1 μg/ml vinblastine.

Data set [7] relates to KBV-1 cells. Nature of the data set: MTT cytotoxicity assay, multidrug-resistant KBV-1 (overexpresses MDR1). It is filed as cell-based, human. The settings on record: KB 3-1 versus KB V-1. The protocol:
as §1
These cells were grown as monolayer cultures at in 5% CO2 and maintained by regular passage in Dulbecco's minimal essential medium supplemented with 10% heat inactivated fetal bovine serum. KBV-1 cells were similarly maintained except they were grown in the presence of 1 μg/ml vinblastine.

For `N#Cc1ccc2[nH]c(-c3ccc4[nH]c(-c5ccc6[nH]cnc6c5)nc4c3)nc2c1` [Compound 11, 5-Cyano-2-[2'-(benzimidazol-5"-yl)benzimidazol-5'-yl]benzimidazole], the “Topo I-mediated DNA cleavage (REC, Relative Effective Concentration)” value in data set [1] is recorded as 1.

For `c1cc(-c2ccc3[nH]c(-c4ccc5[nH]c(-c6ccc7[nH]cnc7c6)nc5c4)nc3c2)ccn1` [Compound 16, 5-(4-Pyridyl)-2-[2'-(benzimidazol-5"-yl)benzimidazol-5'-yl]benzimidazole], in [1], the “potency as topoisomerase I inhibitor (in words)” value is “somewhat more active than the 2-pyridyl derivative, 14” and the “Topo I-mediated DNA cleavage (REC, Relative Effective Concentration)” value is listed as 2. In addition, in the data set with tumor cells, the “cytotoxicity of 3- and 4-pyridyl versus 2-pyridyl analog (in words)” value is reported as “somewhat more active than the 2-pyridyl derivative, 14”.

In the case of `CCOc1ccc(-c2nc3cc(-c4nc5cc(N6CCN(C)CC6)ccc5[nH]4)ccc3[nH]2)cc1` [Hoechst 33342, 2'-(4-ethoxyphenyl)-5-(4-methyl-1-piperazinyl)-2,5'-bi-1H-benzimidazole], the “binding to DNA” value in the data set on minor groove of DNA is given as “binds to the minor groove of DNA”. In the data set with CPT-K5 [2], the “effect against camptothecin-resistant CPT-K5 cells (in words)” value is recorded as “effective against camptothecin-resistant CPT-K5 cells”. In addition, the “topoisomerase I inhibition (literature)” value in the data set with topoisomerase I was “inhibitor of topoisomerase I; also recorded: traps the reversible cleavable complex derived from DNA and topoisomerase I”. Also, the “protonation at physiological pH” value in data set [3] is listed as “extensively protonated at physiological pH”. Further, the “IC50 difference, KB 3-1 as compared to KB V-1 cells (literature)” value in the data set on KBV-1 cells [4] is reported as “approximately two-orders of magnitude”.

Regarding `c1ccc2[nH]c(-c3ccc4[nH]c(-c5ccc6[nH]cnc6c5)nc4c3)nc2c1` [Compound 10, 2-[2'-(Benzimidazol-5"-yl)benzimidazol-5'-yl]benzimidazole], the “Topo I-mediated DNA cleavage (REC, Relative Effective Concentration)” value in data set [1] came out at 1.1.

In the case of `CC[C@@]1(O)C(=O)OCc2c1cc1n(c2=O)Cc2cc3ccccc3nc2-1` [camptothecin], the “relative resistance of camptothecin” value in the data set with CPT-K5 [5] is given as 2,500 fold.

As for `c1ccc(-c2ccc3[nH]c(-c4ccc5[nH]c(-c6ccc7[nH]cnc7c6)nc5c4)nc3c2)cc1` [Compound 13, 5-Phenyl-2-[2'(benzimidazol-5"-yl)benzimidazol-5'-yl]benzimidazole], the “substrate for human MDR1” value in [6] was “appears not to be a substrate for human MDR1”. Besides, in the data set on CPT-K5 [2], the “effect against camptothecin-resistant CPT-K5 cells (in words)” value is “effective against camptothecin-resistant CPT-K5 cells”. Besides, in the data set on KBV-1 cells [7], the “IC50 difference between KB 3-1 and KB V-1 cells (in words)” value is on record as “little difference”. Also, in [1], the “potency as topoisomerase I inhibitor (in words)” value is listed as “approximately one-half as potent as Hoechst 33342” and the “Topo I-mediated DNA cleavage (REC, Relative Effective Concentration)” value is given as 2.

As to `CCCc1ccc2[nH]c(-c3ccc4[nH]c(-c5ccc6[nH]cnc6c5)nc4c3)nc2c1` [Compound 12, 5-Propyl-2-[2'-(benzimidazol-5"-yl)benzimidazol-5'-yl]benzimidazole], in data set [1], the “potency as topoisomerase I inhibitor (in words)” value was “much less active than either 10, 11, or 13” and the “Topo I-mediated DNA cleavage (REC, Relative Effective Concentration)” value is 100. Besides, the “cytotoxicity to tumor cells (in words, general)” value with tumor cells is given as “weak cytotoxicity”.

Consider `c1cncc(-c2ccc3[nH]c(-c4ccc5[nH]c(-c6ccc7[nH]cnc7c6)nc5c4)nc3c2)c1` [Compound 15, 5-(3-Pyridyl)-2-[2'-(benzimidazol-5"-yl)benzimidazol-5'-yl]benzimidazole], for which, in data set [1], the “potency as topoisomerase I inhibitor (in words)” value is on record as “somewhat more active than the 2-pyridyl derivative, 14” and the “Topo I-mediated DNA cleavage (REC, Relative Effective Concentration)” value is 2. Also, the “cytotoxicity of 3- and 4-pyridyl versus 2-pyridyl analog (in words)” value in the data set on tumor cells was “somewhat more active than the 2-pyridyl derivative, 14”.

`c1ccc(-c2ccc3[nH]c(-c4ccc5[nH]c(-c6ccc7[nH]cnc7c6)nc5c4)nc3c2)nc1` [Compound 14, 5-(2-Pyridyl)-2-[2'-(benzimidazol-5"-yl)benzimidazol-5'-yl]benzimidazole]: the antifungal activity result in “Antifungal activity” is given as “exhibits antifungal activity”. Moreover, the “Topo I-mediated DNA cleavage (REC, Relative Effective Concentration)” value in [1] amounted to 3.3.

In the case of `N#Cc1ccc2[nH]c(-c3ccc4[nH]cnc4c3)nc2c1` [Compound 19, 5-Cyano-2-(benzimidazol-5'-yl)benzimidazole], the “Topo I-mediated DNA cleavage (REC, Relative Effective Concentration)” value in data set [1] is listed as 1000.

(Values after US5807874A, “Trisbenzimidazoles useful as topoisomerase I inhibitors” (Rutgers, The State University of New Jersey, priority 1995, dated 1998).)
